17 compounds from patent publication US20250340538A1, “IMIDAZOLONE DERIVATIVES AS INHIBITORS OF PROTEIN KINASES IN PARTICULAR DYRK1A, CLK1 AND/OR CLK4” (PERHA PHARMACEUTICALS, priority 2021, published 2025) can be followed below.

The structures appear in SMILES notation. Structures can show the parent of a compound that is named as a salt. A value given as a limit tells only on which side of the number the result lay.

In one experiment the target is T1, CLK1 (Homo sapiens, UniProt P49759).
T1 construct: GST-fusion or His-tag (not specified per kinase); purchased ProQinase GmbH; host or cells: Sf9 insect cells or E. coli (not specified per kinase)
Nature of the experiment: Radiometric protein kinase assay (33PanQinase Activity Assay), CLK1. It is filed as biochemical. Conditions: class by IC50 on CLK1, from dose-response curves; read-out: Potency Class CLK1. How it is done:
Assays were performed by ProQinase GmbH (Engesserstr. 4, D-79108 Freiburg, Germany. www.proqinase.com). The IC50 profile of all compounds was determined using 12 protein kinases (CDK2/cyclin E, CK1ε, CLK1, 2, 3, 4, DYRK1A, 1B, 2, 3, 4, GSK3β).
(§1) The compounds were provided as […] in 100% DMSO. Prior to testing, the 1 μM stock solutions were subjected to a serial, semi-logarithmic dilution using 100% DMSO as a solvent. […] In the process, 90 μl H2O were added to each well of each compound dilution plate. To minimize potential precipitation, the H2O was added to each plate only a few minutes before the transfer of the compound solutions into the assay plates. The plate was shaken thoroughly, resulting in a compound dilution plate/10% DMSO.
(§2) For the assays (see below), 5 μL solution from each well of the compound dilution plates/10% DMSO were transferred into the assay plates. The final volume of the assay was 50 μL. All compounds were tested at 10 final assay concentrations in the range from 10 μM to 30 nM. The final DMSO concentration in the reaction cocktails was 1% in all cases.
(§3) All protein kinases provided by ProQinase were expressed in Sf9 insect cells or in E. coli as recombinant GST-fusion proteins or His-tagged proteins, either as full-length or enzymatically active fragments. All kinases were produced from human cDNAs and purified by either GSH-affinity chromatography or immobilized metal. Affinity tags were removed from a number of kinases during purification. The purity of the protein kinases was examined by SDS-PAGE/Coomassie staining, the identity was checked by mass spectroscopy.
(§4) A radiometric protein kinase assay (33PanQinase® Activity Assay) was used for measuring the kinase activity of the 12 protein kinases. All kinase assays were performed in 96-well FlashPlates™ from PerkinElmer (Boston, MA, USA) in a 50 μL reaction volume. The reaction cocktail was pipetted in four steps in the following order: • 25 μL of assay buffer (standard buffer/[γ-^33P]-ATP), • 10 μL of ATP solution (in H2O), • 5 μL of test compound (in 10% DMSO), • 10 μL of enzyme/substrate mixture.
(§5) The reaction cocktails were incubated at 30° C. for 60 minutes. The reaction was stopped with 50 μL of 2% (v/v) H3PO4, plates were aspirated and washed two times with 200 μL 0.9% (w/v) NaCl. Incorporation of ^33Pi was determined with a microplate scintillation counter (Microbeta, Wallac). The IC50 values for all compounds were calculated from the dose response curves
As a parameter for assay quality, the Z′-factor (Zhang et al., J. Biomol. Screen. 2: 67-73, 1999) for the low and high controls of each assay plate (n=8) was used. ProQinase's criterion for repetition of an assay plate is a Z′-factor below 0.4 (Iversen et al., J. Biomol. Screen. 3: 247-252, 2006).

In another experiment the target is T2, DYRK1A (Homo sapiens, UniProt Q13627).
T2 construct: GST-fusion or His-tag (not specified per kinase); purchased ProQinase GmbH; host or cells: Sf9 insect cells or E. coli (not specified per kinase)
The experiment in a line: Radiometric protein kinase assay (33PanQinase Activity Assay), DYRK1A. To be noted: for IC50: class by IC50 on DYRK1A, from dose-response curves, read-out: Potency Class DYRK1A; for Selectivity Class DYRK1A vs. CLK1: ratio of IC50 on CLK1 over IC50 on DYRK1A; for Selectivity Class DYRK1A vs. DYRK1B: ratio of IC50 on DYRK1B over IC50 on DYRK1A. It is filed as biochemical. How it is done:
The IC50 profile of all compounds was determined using 12 protein kinases (CDK2/cyclin E, CK1ε, CLK1, 2, 3, 4, DYRK1A, 1B, 2, 3, 4, GSK3β).
as §1, §2, §3, §4, §5

T1 sequence (P49759 whole entry, the tested form may be a part): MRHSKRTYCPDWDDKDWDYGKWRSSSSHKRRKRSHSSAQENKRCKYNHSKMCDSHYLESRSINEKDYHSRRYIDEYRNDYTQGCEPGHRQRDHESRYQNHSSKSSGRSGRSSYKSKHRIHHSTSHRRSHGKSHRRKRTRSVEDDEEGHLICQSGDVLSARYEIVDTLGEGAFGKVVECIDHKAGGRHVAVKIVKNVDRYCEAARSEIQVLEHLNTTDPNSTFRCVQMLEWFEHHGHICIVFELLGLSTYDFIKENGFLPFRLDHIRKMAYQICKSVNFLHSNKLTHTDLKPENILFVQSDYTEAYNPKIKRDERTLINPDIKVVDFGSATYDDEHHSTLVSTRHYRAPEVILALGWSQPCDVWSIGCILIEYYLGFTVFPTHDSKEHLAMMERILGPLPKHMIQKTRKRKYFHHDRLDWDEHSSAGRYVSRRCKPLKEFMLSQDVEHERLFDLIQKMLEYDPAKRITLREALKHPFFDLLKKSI

Turning to `O=C1NC(NC2CCCCOC2)=N/C1=C\c1ccc2nccnc2c1` (racemic) [Compound 41, (4Z)-2-(Oxepan-3-ylamino)-4-(quinoxalin-6-ylmethylene)-1H-imidazol-5-one], the IC50 at CLK1 was > 50 nM. Besides, at DYRK1A, the IC50 is > 50 nM; the “Selectivity Class DYRK1A vs. CLK1” value was “III (ratio between 0.5 and 2 fold)”; the “Selectivity Class DYRK1A vs. DYRK1B” value is “II (ratio between 2 and 10 fold)”.

With `CN1C(=O)/C(=C/c2ccc3nccnc3c2)N=C1NC1CCCCCC1` [Compound 83, (5Z)-2-(Cycloheptylamino)-3-methyl-5-(quinoxalin-6-ylmethylene)imidazol-4-one], the IC50 on CLK1 is > 50 nM. On DYRK1A, the IC50 was > 50 nM; the “Selectivity Class DYRK1A vs. CLK1” value was “III (ratio between 0.5 and 2 fold)”; the “Selectivity Class DYRK1A vs. DYRK1B” value was “III (ratio between 0.5 and 2 fold)”.

With `O=C1NC(NCC2CCCCC2)=N/C1=C\c1ccc2ncccc2c1` [Compound 45, (4Z)-2-(Cyclohexylmethylamino)-4-(6-quinolylmethylene)-1H-imidazol-5-one], the IC50 at CLK1 is > 50 nM. Also, on DYRK1A, the IC50 was > 50 nM; the “Selectivity Class DYRK1A vs. CLK1” value was “IV (ratio between 0.1 and 0.5 fold)”; the “Selectivity Class DYRK1A vs. DYRK1B” value is “II (ratio between 2 and 10 fold)”.

Consider `O=C1NC(NCc2ccccc2C(F)(F)F)=N/C1=C\c1ccc2nccnc2c1` [Compound 22, (4Z)-4-(quinoxalin-6-ylmethylene)-2-[[2-(trifluoromethyl)phenyl]methylamino]-1H-imidazol-5-one], for which, on CLK1, the IC50 was > 50 nM. On DYRK1A, the IC50 is > 50 nM; the “Selectivity Class DYRK1A vs. CLK1” value was “III (ratio between 0.5 and 2 fold)”; the “Selectivity Class DYRK1A vs. DYRK1B” value was “II (ratio between 2 and 10 fold)”.

With `CC(C)C[C@H](CF)NC1=N/C(=C\c2ccc3nccnc3c2)C(=O)N1` [Compound 14, (4Z)-2-[[(1R)-1-(fluoromethyl)-3-methyl-butyl]amino]-4-(quinoxalin-6-ylmethylene)-1H-imidazol-5-one], on CLK1, the IC50 was > 50 nM. Further, on DYRK1A, the IC50 lay in the range of 10 to 25 nM; the “Selectivity Class DYRK1A vs. CLK1” value is “II (ratio between 2 and 10 fold)”; the “Selectivity Class DYRK1A vs. DYRK1B” value is “II (ratio between 2 and 10 fold)”.

With `COC[C@@H](CC(C)C)NC1=N/C(=C\c2ccc3cnccc3c2)C(=O)N1` [Compound 60, (4Z)-4-(6-isoquinolylmethylene)-2-[[(1R)-1-(methoxymethyl)-3-methyl-butyl]amino]-1H-imidazol-5-one], the IC50 on CLK1 is > 50 nM. On DYRK1A, the IC50 is > 50 nM; the “Selectivity Class DYRK1A vs. CLK1” value was “II (ratio between 2 and 10 fold)”; the “Selectivity Class DYRK1A vs. DYRK1B” value was “III (ratio between 0.5 and 2 fold)”.

Take `CN1C(=O)/C(=C/c2ccc3cnccc3c2)N=C1NC1CCCCC1` [Compound 86, (5Z)-2-(Cyclohexylamino)-3-methyl-5-(isoquinolin-6-ylmethylene)imidazol-4-one]: the IC50 at CLK1 was > 50 nM. For the same compound, on DYRK1A, the IC50 is > 50 nM; the “Selectivity Class DYRK1A vs. CLK1” value is “III (ratio between 0.5 and 2 fold)”; the “Selectivity Class DYRK1A vs. DYRK1B” value is “IV (ratio between 0.1 and 0.5 fold)”.

As for `CC1(C)CCC(NC2=N/C(=C\c3ccc4nccnc4c3)C(=O)N2)CO1` (racemic) [Compound 36, (±)-(4Z)-2-[(6,6-dimethyltetrahydropyran-3-yl)amino]-4-(quinoxalin-6-ylmethylene)-1H-imidazol-5-one], the IC50 at CLK1 is > 50 nM. At DYRK1A, the IC50 is > 50 nM; the “Selectivity Class DYRK1A vs. CLK1” value is “II (ratio between 2 and 10 fold)”; the “Selectivity Class DYRK1A vs. DYRK1B” value was “II (ratio between 2 and 10 fold)”.

As to `O=C1NC(N[C@@H]2CCCOC2)=N/C1=C\c1ccc2nccnc2c1` [Compound 39, (4Z)-4-(quinoxalin-6-ylmethylene)-2-[[(3R)-tetrahydropyran-3-yl]amino]-1H-imidazol-5-one], on CLK1, the IC50 is > 50 nM. In addition, on DYRK1A, the IC50 lay in the range of 25 to 50 nM; the “Selectivity Class DYRK1A vs. CLK1” value is “III (ratio between 0.5 and 2 fold)”; the “Selectivity Class DYRK1A vs. DYRK1B” value was “II (ratio between 2 and 10 fold)”.

As to `CN1C(=O)/C(=C/c2ccc3ncccc3c2)N=C1NC1CCCCCC1` [Compound 85, (5Z)-2-(Cycloheptylamino)-3-methyl-5-(quinolin-6-ylmethylene)imidazol-4-one], the IC50 at CLK1 was > 50 nM. Also, on DYRK1A, the IC50 is > 50 nM; the “Selectivity Class DYRK1A vs. CLK1” value was “IV (ratio between 0.1 and 0.5 fold)”; the “Selectivity Class DYRK1A vs. DYRK1B” value was “III (ratio between 0.5 and 2 fold)”.

As for `NC[C@H](NC1=N/C(=C\c2ccc3nccnc3c2)C(=O)N1)c1ccccc1` [Compound 28, (4Z)-2-[[(1R)-2-amino-1-phenyl-ethyl]amino]-4-(quinoxalin-6-ylmethylene)-1H-imidazol-5-one dihydrochloride], the IC50 on CLK1 is 25 to 50 nM. Further, on DYRK1A, the IC50 is 25 to 50 nM; the “Selectivity Class DYRK1A vs. CLK1” value was “III (ratio between 0.5 and 2 fold)”; the “Selectivity Class DYRK1A vs. DYRK1B” value is “II (ratio between 2 and 10 fold)”.

For `O=C1NC(NC2CCCCCC2)=N/C1=C\c1ccc2cnccc2c1` [Compound 57, (4Z)-2-(cycloheptylamino)-4-(6-isoquinolylmethylene)-1H-imidazol-5-one], the IC50 on CLK1 is > 50 nM. Further, at DYRK1A, the IC50 was > 50 nM; the “Selectivity Class DYRK1A vs. CLK1” value is “III (ratio between 0.5 and 2 fold)”; the “Selectivity Class DYRK1A vs. DYRK1B” value was “III (ratio between 0.5 and 2 fold)”.

With `O=C1NC(N[C@@H]2COCC[C@H]2O)=N/C1=C\c1ccc2nccnc2c1` [Compound 40, (4Z)-2-[[(3R,4R)-4-Hydroxytetrahydropyran-3-yl]amino]-4-(quinoxalin-6-ylmethylene)-1H-imidazol-5-one], the IC50 on CLK1 was > 50 nM. For the same compound, at DYRK1A, the IC50 was > 50 nM; the “Selectivity Class DYRK1A vs. CLK1” value is “III (ratio between 0.5 and 2 fold)”; the “Selectivity Class DYRK1A vs. DYRK1B” value is “II (ratio between 2 and 10 fold)”.

Take `O=C1NC(N[C@H]2CCCOC2)=N/C1=C\c1ccc2nccnc2c1` [Compound 38, (4Z)-4-(quinoxalin-6-ylmethylene)-2-[[(3S)-tetrahydropyran-3-yl]amino]-1H-imidazol-5-one]: the IC50 at CLK1 was > 50 nM. In addition, at DYRK1A, the IC50 was > 50 nM; the “Selectivity Class DYRK1A vs. CLK1” value is “III (ratio between 0.5 and 2 fold)”; the “Selectivity Class DYRK1A vs. DYRK1B” value is “II (ratio between 2 and 10 fold)”.

As for `O=C1NC(NC[C@H](O)c2ccccc2)=N/C1=C\c1ccc2nccnc2c1` [Compound 27, (4Z)-2-[[(2R)-2-hydroxy-2-phenyl-ethyl]amino]-4-(quinoxalin-6-ylmethylene)-1H-imidazol-5-one], the IC50 at CLK1 was > 50 nM. For the same compound, on DYRK1A, the IC50 was > 50 nM; the “Selectivity Class DYRK1A vs. CLK1” value was “III (ratio between 0.5 and 2 fold)”; the “Selectivity Class DYRK1A vs. DYRK1B” value is “II (ratio between 2 and 10 fold)”.

Take `CO[C@H]1CCC[C@@H]1NC1=N/C(=C\c2ccc3nccnc3c2)C(=O)N1` [Compound 5, (4Z)-2-[[(1S,2S)-2-Methoxycyclopentyl]amino]-4-(quinoxalin-6-ylmethylene)-1H-imidazol-5-one]: the IC50 at CLK1 was > 50 nM. At DYRK1A, the IC50 was > 50 nM; the “Selectivity Class DYRK1A vs. CLK1” value is “III (ratio between 0.5 and 2 fold)”; the “Selectivity Class DYRK1A vs. DYRK1B” value is “II (ratio between 2 and 10 fold)”.

For `O=C1NC(NC2COCCOC2)=N/C1=C\c1ccc2nccnc2c1` [Compound 42, (4Z)-2-(1,4-dioxepan-6-ylamino)-4-(quinoxalin-6-ylmethylene)-1H-imidazol-5-one], the IC50 on CLK1 is > 50 nM. Besides, on DYRK1A, the IC50 was > 50 nM; the “Selectivity Class DYRK1A vs. CLK1” value was “III (ratio between 0.5 and 2 fold)”; the “Selectivity Class DYRK1A vs. DYRK1B” value is “II (ratio between 2 and 10 fold)”.
